Where two headings read alike, the source gives them in different places.
Columns and labels:
Chikungunya virus = experiment: Evaluation of antiviral activity against Chikungunya virus (EC90); format: cell-based
From the text: EC90 refers to the concentration of the compound that is required for 90% antagonism or inhibition of CHIKV. EC90 also refers to the concentration of a substance that is required for 90% antagonism or inhibition of CHIKV in vivo.
(§1) The compounds below in Table 1 were synthesized with methods identical or analogous to those described herein. The requisite starting materials were commercially available, described in the literature, or readily synthesized by one skilled in the art of organic synthesis.

[1] = CC50 reported alongside the CHIKV antiviral assay (cytotoxicity); format: cell-based; conditions: cell line not given
From the text: as §1

[2] = Chikungunya virus, read-out: EC90 (μM) CHIKV, concentration required for 90% inhibition of CHIKV
[3] = read-out: EC90 (μM) CHIKV, concentration required for 90% inhibition of CHIKV

| Compound | EC90 (Chikungunya virus; [2]) [µM] | CC50 [1] [µM] | EC90 (Chikungunya virus; [3]) [µM] |
| --- | --- | --- | --- |
| CCc1ccc(C(=O)Nc2cc3c(cc2OC)CCCCC3)cc1 [Compound 56, 4-Ethyl-N-(3-methoxy-6,7,8,9-tetrahydro-5H-benzo[7]annulen-2-yl)benzamide] | > 10 | > 30 | – |
| CCOc1cc2c(cc1NC(=O)c1ccc(C(C)(C)C)cc1)CCCCC2 [Compound 84, 4-(tert-Butyl)-N-(3-ethoxy-6,7,8,9-tetrahydro-5H-benzo[7]annulen-2-yl)benzamide] | 5.19 | 10 | – |
| COc1cc2c(cc1NC(=O)c1ccc(C(C)(C)CO)cc1)CCCCC2 [Compound 47] | 7.1 | 96.3 | – |
| COc1cc2c(cc1NC(=O)c1ccc(OC(F)(F)F)cc1)CCCCC2 [Compound 72, N-(3-Methoxy-6,7,8,9-tetrahydro-5H-benzo[7]annulen-2-yl)-4-(trifluoromethoxy)benzamide] | 3.3 | > 30 | – |
| COc1cc2c(cc1NC(=O)c1ccc(C(C)(C)C)cc1)CCCC(=O)N2C(C)C [Compound 63, 4-(tert-butyl)-N-(1-isopropyl-8-methoxy-2-oxo-2,3,4,5-tetrahydro-1H-benzo[b]azepin-7-yl)benzamide] | > 30 | > 30 | – |
| COc1cc2c(cc1NC(=O)c1cnc(C(C)(C)C)nc1)CCCCC2 [Compound 49, 2-(tert-Butyl)-N-(3-methoxy-6,7,8,9-tetrahydro-5H-benzo[7]annulen-2-yl)pyrimidine-5-carboxamide] | 2.99 | 37.6 | – |
| CC(C)(C)c1ccc(C(=O)Nc2cc3c(cc2N)CCCCC3)cc1 [Compound 20, N-(3-amino-6,7,8,9-tetrahydro-5H-benzo[7]annulen-2-yl)-4-(tert-butyl)benzamide] | > 30 | > 30 | – |
| COc1cc2c(cc1NC(=O)c1cc(C)n(C(C)(C)C)n1)CCCCC2 [Compound 61] | 5.64 | > 30 | – |
| COc1cc2c(cc1NC(=O)c1cnc(C)cn1)CCCCC2 [Compound 81, N-(3-methoxy-6,7,8,9-tetrahydro-5H-benzo[7]annulen-2-yl)-5-methylpyrazine-2-carboxamide] | – | > 30 | > 10 |
| COc1cc2c(cc1NC(=O)c1ccccc1C(C)(C)C)CCCCC2 [Compound 43, 2-(tert-Butyl)-N-(3-methoxy-6,7,8,9-tetrahydro-5H-benzo[7]annulen-2-yl)benzamide] | 3.2 | > 30 | – |
| CCn1cc(C(=O)Nc2cc3c(cc2OC)CCCCC3)c(C(F)(F)F)n1 [Compound 45, 1-Ethyl-N-(3-methoxy-6,7,8,9-tetrahydro-5H-benzo[7]annulen-2-yl)-3-(trifluoromethyl)-1H-pyrazole-4-carboxamide] | 2.95 | 34.5 | – |
| CC(C)(C)c1ncc(C(=O)Nc2ccc3c(c2)CCCCC3)s1 [Compound 25, 2-(tert-butyl)-N-(6,7,8,9-tetrahydro-5H-benzo[7]annulen-2-yl)thiazole-5-carboxamide] | 22.6 | 15.7 | – |
| CC(C)(C)c1ccc(C(=O)Nc2cc3c(cc2C#N)CCCCC3)cc1 [Compound 12, 4-(tert-Butyl)-N-(3-cyano-6,7,8,9-tetrahydro-5H-benzo[7]annulen-2-yl)benzamide] | 4.4 | 17 | – |
| COc1cc2c(cc1NC(=O)c1c[nH]nc1C)CCCCC2 [Compound 69, N-(3-methoxy-6,7,8,9-tetrahydro-5H-benzo[7]annulen-2-yl)-3-methyl-1H-pyrazole-4-carboxamide] | 3.1 | > 30 | – |
| COc1cc2c(cc1NC(=O)c1cnc(C)cn1)CCCCC2 [Compound 39, N-(3-Methoxy-6,7,8,9-tetrahydro-5H-benzo[7]annulen-2-yl)-5-methylpyrazine-2-carboxamide] | – | > 30 | > 30 |
| CC(C)(C)c1ccc(C(=O)Nc2ccc3c(c2)CCCCC3)cc1 [Compound 19, 4-(tert-Butyl)-N-(6,7,8,9-tetrahydro-5H-benzo[7]annulen-2-yl)benzamide] | 0.7 | 79.1 | – |
| COc1cc2c(cc1NC(=O)c1ccc(C3(C(F)(F)F)CC3)cc1)CCCCC2 [Compound 51, N-(3-methoxy-6,7,8,9-tetrahydro-5H-benzo[7]annulen-2-yl)-4-(1-(trifluoromethyl)cyclopropyl)benzamide] | 1.3 | > 30 | – |
| COCCOc1cc2c(cc1NC(=O)c1ccc(C(C)(C)C)cc1)CCCCC2 [Compound 21, 4-(tert-Butyl)-N-(3-(2-methoxyethoxy)-6,7,8,9-tetrahydro-5H-benzo[7]annulen-2-yl)benzamide] | > 30 | > 30 | – |

| Compound | EC90 (Chikungunya virus; [2]) [µM] | CC50 [1] [µM] | EC90 (Chikungunya virus; [3]) [µM] |
| --- | --- | --- | --- |
| COc1cc2c(cc1NC(=O)c1cnc(C)s1)CCCCC2 [Compound 33, N-(3-methoxy-6,7,8,9-tetrahydro-5H-benzo[7]annulen-2-yl)-2-methylthiazole-5-carboxamide] | > 30 | > 30 | – |
| COc1cc2c(cc1NC(=O)c1ccc(Cl)cc1I)CCCCC2 [Compound 75, 4-Chloro-2-iodo-N-(3-methoxy-6,7,8,9-tetrahydro-5H-benzo[7]annulen-2-yl)benzamide] | 6.1 | > 30 | – |
| CC(C)(C)c1ccc(C(=O)Nc2cc3c(cc2CO)CCCCC3)cc1 [Compound 29] | > 10 | > 30 | – |
| COc1cc2c(cc1NC(=O)c1oc3ccccc3c1C)CCCCC2 [Compound 79, N-(3-methoxy-6,7,8,9-tetrahydro-5H-benzo[7]annulen-2-yl)-3-methylbenzofuran-2-carboxamide] | > 10 | > 30 | – |
| CC(C)(C)c1ccc(C(=O)Nc2cc3c(cc2C(F)(F)F)CCCCC3)cc1 [Compound 14, 4-(tert-butyl)-N-(3-(trifluoromethyl)-6,7,8,9-tetrahydro-5H-benzo[7]annulen-2-yl)benzamide] | > 30 | > 30 | – |
| COc1cc2c(cc1NC(=O)c1ccc(F)cc1)CCCCC2 [Compound 78, 4-Fluoro-N-(3-methoxy-6,7,8,9-tetrahydro-5H-benzo[7]annulen-2-yl)benzamide] | > 10 | > 30 | – |
| COc1cc2c(cc1NC(=O)c1ccc(C(C)(C)C(F)(F)F)cc1)CCCCC2 [Compound 52, N-(3-methoxy-6,7,8,9-tetrahydro-5H-benzo[7]annulen-2-yl)-4-(1,1,1-trifluoro-2-methylpropan-2-yl)benzamide] | 3.47 | 19.1 | – |
| COc1cc2c(cc1NC(=O)c1ccc(C(=O)O)cc1)CCCCC2 [Compound 55] | > 10 | > 30 | – |
| CC(C)(C)c1ccc(C(=O)Nc2cc3c(cc2OCc2ccc(C(F)(F)F)cc2)CCCCC3)cc1 [Compound 17, 4-(tert-Butyl)-N-(3-((4-(trifluoromethyl)benzyl)oxy)-6,7,8,9-tetrahydro-5H-benzo[7]annulen-2-yl)benzamide] | > 30 | > 30 | – |
| COc1cc2c(cc1NC(=O)c1ccc(C3CC3)cc1)CCCCC2 [Compound 80, 4-Cyclopropyl-N-(3-methoxy-6,7,8,9-tetrahydro-5H-benzo[7]annulen-2-yl)benzamide] | 12.3 | > 30 | – |
| COc1cc2c(cc1N(C)C(=O)c1ccc(C(C)(C)C)cc1)CCCCC2 [Compound 30] | 14.5 | > 30 | – |
| CN(C(=O)c1ccc(C(C)(C)C)cc1)c1ccc2c(c1)CCCCC2 [Compound 28, 4-(tert-butyl)-N-methyl-N-(6,7,8,9-tetrahydro-5H-benzo[7]annulen-2-yl)benzamide] | > 10 | > 30 | – |
| COc1cc2c(cc1NC(=O)c1cccc(C(C)(C)C)c1)CCCCC2 [Compound 41, 3-(tert-Butyl)-N-(3-methoxy-6,7,8,9-tetrahydro-5H-benzo[7]annulen-2-yl)benzamide] | 34.1 | > 30 | – |
| COc1cc2c(cc1NC(=O)c1ccccc1)CCCCC2 [Compound 83, N-(3-methoxy-6,7,8,9-tetrahydro-5H-benzo[7]annulen-2-yl)benzamide] | > 10 | > 30 | – |
| COc1c(NC(=O)c2cnc(C(C)(C)C)s2)cc2c(c1F)CCCCC2 [Compound 24, 2-(tert-Butyl)-N-(4-fluoro-3-methoxy-6,7,8,9-tetrahydro-5H-benzo[7]annulen-2-yl)thiazole-5-carboxamide] | > 10 | > 30 | – |
| CC(C)(C)c1ccc(C(=O)Nc2cc3c(cc2OC(F)(F)F)CCCCC3)cc1 [Compound 13, 4-(tert-butyl)-N-(3-(trifluoromethoxy)-6,7,8,9-tetrahydro-5H-benzo[7]annulen-2-yl)benzamide] | 13.7 | > 25 | – |
| COc1cc2c(cc1NC(=O)c1cc(-c3ccccc3)on1)CCCCC2 [Compound 36, N-(3-methoxy-6,7,8,9-tetrahydro-5H-benzo[7]annulen-2-yl)-5-phenylisoxazole-3-carboxamide] | 9 | > 30 | – |
| COc1cc2c(cc1NC(=O)c1cnc(C(C)(C)C)s1)CCCCC2 [Compound 44, 2-(tert-Butyl)-N-(3-methoxy-6,7,8,9-tetrahydro-5H-benzo[7]annulen-2-yl)thiazole-5-carboxamide] | 1.2 | > 30 | – |

Reference: patent US10450263B2, “Benzo annulenes as antiviral agents” (Southern Research Institute, priority 2017, dated 2019)
